Test results published in PMC8058616 (Bioorganic & medicinal chemistry, 2021).
Like-named read-outs stand apart in the source and are kept apart here.

What was measured:
KB human tumor cells [1] = assay: Nucleoside/AICA protection of KB cell proliferation; conditions: AICA 320 μM
[2] = system: PC43–10 CHO cells (human RFC); conditions: read-out: IC50 PC43–10 (RFC); 96 h; mean (SE); previously published ref 7, 40; cited from earlier work
KB human tumor cells [3] = conditions: AICA 320 μM, as previously reported ref 40; cited from earlier work
[4] = system: KB nasopharyngeal carcinoma cells; assay: Proliferation assay, KB human tumor cells; assay type: cell-based; conditions: 96 h, read-out: IC50 KB (+FA)
[5] = system: NCI-IGROV1 ovarian cancer cells; assay: Proliferation assay, NCI-IGROV1 EOC cells; assay type: cell-based, human; conditions: 96 h; for IC50: Homo sapiens
NCI-IGROV1 EOC cells = assay: Targeted metabolomics; assay type: cell-based, human; conditions: 1 μM inhibitor, 48 h; for Increase in ZMP (AICAR) level: relative to control
[6] = system: PC43–10 CHO cells (human RFC); assay: Proliferation assay, RFC-expressing PC43–10 CHO cells; conditions: PC43-10, 96 h, read-out: IC50 PC43–10 (RFC)
human GARFTase = molecular target: T1, human GARFTase (Homo sapiens, UniProt P22102); assay: In vitro spectrophotometric GARFTase assay with purified enzyme; assay type: biochemical; conditions: ratio of Ki values
T1 sequence (P22102 808-1010): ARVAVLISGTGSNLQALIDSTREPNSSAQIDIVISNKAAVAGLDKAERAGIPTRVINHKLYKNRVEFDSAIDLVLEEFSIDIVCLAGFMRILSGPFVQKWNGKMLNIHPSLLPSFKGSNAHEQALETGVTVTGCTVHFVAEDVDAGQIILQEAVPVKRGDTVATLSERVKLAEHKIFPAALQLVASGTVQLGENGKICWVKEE

[7] = molecular target: human AICARFTase/IMP cyclohydrolase (ATIC) (Homo sapiens, UniProt P31939); assay: In vitro spectrophotometric AICARFTase; assay type: biochemical; conditions: ratio of Ki values
human AICARFTase/IMP cyclohydrolase (ATIC), sequence (P31939 whole entry): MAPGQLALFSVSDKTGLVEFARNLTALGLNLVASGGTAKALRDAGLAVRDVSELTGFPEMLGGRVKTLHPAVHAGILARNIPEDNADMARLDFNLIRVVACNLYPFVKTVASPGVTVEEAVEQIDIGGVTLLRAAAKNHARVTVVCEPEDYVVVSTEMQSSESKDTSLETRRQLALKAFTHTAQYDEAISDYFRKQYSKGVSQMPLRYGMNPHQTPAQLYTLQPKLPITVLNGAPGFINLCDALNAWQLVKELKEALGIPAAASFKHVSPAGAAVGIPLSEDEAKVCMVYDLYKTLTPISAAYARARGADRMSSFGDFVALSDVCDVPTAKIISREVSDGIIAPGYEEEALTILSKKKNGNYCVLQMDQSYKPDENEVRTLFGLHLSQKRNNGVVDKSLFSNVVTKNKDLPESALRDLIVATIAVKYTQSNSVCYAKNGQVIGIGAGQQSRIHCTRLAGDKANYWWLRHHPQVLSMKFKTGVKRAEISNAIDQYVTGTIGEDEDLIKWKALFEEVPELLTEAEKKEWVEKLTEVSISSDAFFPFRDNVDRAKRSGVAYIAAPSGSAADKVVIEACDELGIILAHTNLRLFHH

[8] = read-out: IC50 NCI-IGROV1 (+FA)
[9] = read-out: IC50 NCI-IGROV1 (RFC/FRα/PCFT)

Row | Compound | IC50 [4] [nM] | IC50 [5, 8] [nM] | IC50 [6] [nM] | other results
1 | Nc1nc2[nH]cc(CCCCc3ccc(C(=O)N[C@@H](CCC(=O)O)C(=O)O)cc3)c2c(=O)[nH]1 [AGF23] |  |  |  | Protection by AICA (KB human tumor cells [1]): completely protected
2 | Nc1nc2sc(CCCCc3ccc(C(=O)N[C@@H](CCC(=O)O)C(=O)O)cc3)cc2c(=O)[nH]1 [Compound 2] |  |  |  | IC50 [2]: > 1000 nM; Protection by AICA (KB human tumor cells [3]): incomplete protection
3 | Nc1nc2sc(CCCCc3ccc(C(=O)N[C@@H](CCC(=O)O)C(=O)O)s3)cc2c(=O)[nH]1 [Compound 3, (5-(4-(2-amino-4-oxo-3,4-dihydrothieno[2,3-d]pyrimidin-6-yl)butyl)thiophene-2-carbonyl)-L-glutamic acid] | > 1000 | > 1000 | > 1000 | fGAR level, % of control (NCI-IGROV1 EOC cells): ~ 50 % of control; Increase in ZMP (AICAR) level (NCI-IGROV1 EOC cells): 2 fold
4 | Nc1nc2sc(CCCCc3ccc(C(=O)N[C@@H](CCC(=O)O)C(=O)O)o3)cc2c(=O)[nH]1 [Compound 4, (5-(4-(2-amino-4-oxo-3,4-dihydrothieno[2,3-d]pyrimidin-6-yl)butyl)furan-2-carbonyl)-L-glutamic acid] | > 1000 | > 1000 | > 1000 | IC50 [5, 9]: > 1000 nM
5 | Nc1nc2sc(CCCc3ccc(C(=O)N[C@@H](CCC(=O)O)C(=O)O)s3)cc2c(=O)[nH]1 [Compound 5, (5-(3-(2-amino-4-oxo-3,4-dihydrothieno[2,3-d]pyrimidin-6-yl)propyl)thiophene-2-carbonyl)-L-glutamic acid] | > 1000 | > 1000 | > 1000 | fGAR level, % of control (NCI-IGROV1 EOC cells): ~ 75 % of control; Increase in ZMP (AICAR) level (NCI-IGROV1 EOC cells): 3 fold
6 | Nc1nc2sc(CCCc3csc(C(=O)N[C@@H](CCC(=O)O)C(=O)O)c3)cc2c(=O)[nH]1 [Compound 6, (4-(3-(2-amino-4-oxo-3,4-dihydrothieno[2,3-d]pyrimidin-6-yl)propyl)thiophene-2-carbonyl)-L-glutamic acid] | > 1000 | > 1000 | > 1000 | 
7 | Nc1nc2sc(CCCc3cc(C(=O)N[C@@H](CCC(=O)O)C(=O)O)cs3)cc2c(=O)[nH]1 [Compound 7, (5-(3-(2-amino-4-oxo-3,4-dihydrothieno[2,3-d]pyrimidin-6-yl)propyl)thiophene-3-carbonyl)-L-glu-tamic acid] | > 1000 | > 1000 | > 1000 | 
8 | Nc1nc2sc(CCCCc3cc(C(=O)N[C@@H](CCC(=O)O)C(=O)O)cs3)cc2c(=O)[nH]1 [Compound 8, (5-(4-(2-amino-4-oxo-3,4-dihydrothieno[2,3-d]pyrimidin-6-yl)butyl)thiophene-3-carbonyl)-L-glutamic acid] | > 1000 | > 1000 | > 1000 | Fold decreased GARFTase Ki over lead compound 2 (human GARFTase): ~ 20 fold; Fold decreased AICARFTase Ki over lead compound 2 [7]: ~ 9 fold; IC50 NCI-IGROV1 (RFC/FRα/PCFT) ([5]; without folic acid, mean (SE)): inert; IC50 [5, 9]: > 1000 nM
9 | Nc1nc2sc(CCCCc3csc(C(=O)N[C@@H](CCC(=O)O)C(=O)O)c3)cc2c(=O)[nH]1 [Compound 9, (4-(4-(2-amino-4-oxo-3,4-dihydrothieno[2,3-d]pyrimidin-6-yl)butyl)thiophene-2-carbonyl)-L-glutamic acid] | > 1000 | > 1000 | > 1000 | 
